In the NIST ThermoML archive (doi:10.1021/je1002626):

Legend:
[1] = 101.33 kPa, Liquid, Pycnometric method
[2] = wn = mass fraction of the nth substance listed; details: for surface tension liquid-gas: Ring tensiometer; for mass density: 101.3 kPa, Liquid, Pycnometric method

CNCCO [2-(methylamino)ethanol]
[1]
Details	mass density [kg/m3]
298.15 K	936.18
303.15 K	932.26
313.15 K	924.42
323.15 K	916.48

CNCCO [2-(methylamino)ethanol] + O
[2]
Details	mass density [kg/m3]	surface tension liquid-gas [mN/m]
298 K, w1 = 0.1	–	60.85
298 K, w1 = 0.2	–	56.11
298 K, w1 = 0.3	–	52.51
298 K, w1 = 0.4	–	49.16
298.15 K, w1 = 0.178	996.31	–
298.15 K, w1 = 1	936.18	–
303 K, w1 = 0.1	–	60.02
303 K, w1 = 0.2	–	55.28
303 K, w1 = 0.3	–	52.33
303 K, w1 = 0.4	–	48.15
303.15 K, w1 = 0.178	994.38	–
303.15 K, w1 = 1	932.26	–
308 K, w1 = 0.1	–	59.5
308 K, w1 = 0.2	–	54.5
308 K, w1 = 0.3	–	51.46
308 K, w1 = 0.4	–	47.2
308.15 K, w1 = 0.178	993.12	–
313 K, w1 = 0.1	–	58.65
313 K, w1 = 0.2	–	53.42
313 K, w1 = 0.3	–	50.18
313 K, w1 = 0.4	–	46.67
313.15 K, w1 = 0.178	990.09	–
313.15 K, w1 = 1	924.42	–
318 K, w1 = 0.1	–	57.66
318 K, w1 = 0.2	–	52.78
318 K, w1 = 0.3	–	49.42
318 K, w1 = 0.4	–	45.72
318.15 K, w1 = 0.178	988.61	–
323 K, w1 = 0.1	–	56.89
323 K, w1 = 0.2	–	51.79
323 K, w1 = 0.3	–	48.9
323 K, w1 = 0.4	–	44.92
323.15 K, w1 = 0.178	984.89	–
323.15 K, w1 = 1	916.48	–
